In this assay the test system is Plasmodium berghei. Description: Luciferase/luciferin-expressing antifolate-resistant parasites were used to infect a culture of HepG2 cells that were pre-incubated with compounds. Infected hepatocytes emit light due to the luciferase reaction. Assay results are presented as the percent inhibition of light emission compared to control. […]. Type of assay: functional. The conditions noted are these: sporozoite; for IC90: read-out: LUCIFERASE INFECTION ASSAY - IC90.

Where [1] appears, read: read-out: LUCIFERASE INFECTION ASSAY - IC50.

The structures appear in SMILES notation.

On to `COc1ccc(-c2nc3c(c(=O)[nH]c(=O)n3Cc3ccccc3)n2Cc2ccccc2)cc1`, for which the IC90 – broadly, the concentration at which the effect reaches the 90% level – was above 10 µM. In addition, the IC50 (in general, the concentration at which inhibition is half-maximal) (HEPG2TOX_HILL_SLOPE 7.19, HEPG2TOX_R_SQUARED 0.823, PBLUC_HILL_SLOPE 10.3, PBLUC_R_SQUARED 0.181, read-out: LUCIFERASE INFECTION ASSAY - IC50) turned out to be 8.99 µM.
For `O=C(Nc1ccc2nc(Cc3ccccc3)nn2c1)Nc1cccs1`, the concentration for an effect of 90% (IC90) is above 3.33 µM. For the same compound, the IC50 (PBLUC_HILL_SLOPE 0.558, PBLUC_R_SQUARED 0.579, read-out: LUCIFERASE INFECTION ASSAY - IC50) came to 0.969 µM.
In the case of `COc1cc(-c2nc3ccc(NC(=O)c4ccco4)cn3n2)cc(OC)c1OC`, the concentration for an effect of 90% (IC90) is above 10 µM. The 50% inhibitory concentration (IC50) (PBLUC_HILL_SLOPE 0.261, PBLUC_R_SQUARED 0.0451, read-out: LUCIFERASE INFECTION ASSAY - IC50) was above 10 µM.
Regarding `CC(C)n1ncc2cc(C(=O)Nc3nc(-c4cccnc4)cs3)cnc21`, the concentration for an effect of 90% (IC90) is above 10 µM. The half-maximal inhibitory concentration (IC50) (HEPG2TOX_HILL_SLOPE 1.63, HEPG2TOX_R_SQUARED 0.918, read-out: LUCIFERASE INFECTION ASSAY - IC50) was above 10 µM.
Regarding `Cc1ccc(N(CC(=O)Nc2ccc(Cl)cc2)S(C)(=O)=O)cc1Cl`, the 90% effect concentration (IC90) was above 8.52 µM. Further, the 50% inhibitory concentration (IC50) (HEPG2TOX_HILL_SLOPE 0.0682, HEPG2TOX_R_SQUARED 0.0747, PBLUC_HILL_SLOPE 6.57, PBLUC_R_SQUARED 0.017, read-out: LUCIFERASE INFECTION ASSAY - IC50) is above 8.52 µM.
`COc1ccc(CNC(=O)N2CCc3nc(NCc4cccc(Oc5ccccc5)c4)ncc3C2)cc1`: the concentration for an effect of 90% (IC90) is above 6.66 µM. For the same compound, the IC50 under setting [1] was above 6.66 µM.
With `CC(NC(=S)Nc1ccc(Oc2ccc(Cl)cc2)cc1)c1ccccc1` (stereo not given), the 90% effect concentration (IC90) is above 8.62 µM. Besides, under setting [1], the IC50 is 7.1 µM.
Regarding `CCOC(=O)c1cnn(-c2c(Cl)cc(Cl)cc2Cl)c1-c1ccccc1`, the 90% effect concentration (IC90) was above 8.34 µM. In addition, under setting [1], the IC50 is above 8.34 µM.
As to `CC(=O)N1CCCC(c2cc(C(=O)Nc3ccccc3)no2)C1` (stereo not given), the concentration for an effect of 90% (IC90) came out at 1.44 µM. Besides, the IC50 (FFLUC_HILL_SLOPE 1.94, FFLUC_R_SQUARED 0.745, PBLUC_HILL_SLOPE 0.811, PBLUC_R_SQUARED 0.626, read-out: LUCIFERASE INFECTION ASSAY - IC50) stood at 0.0959 µM.
For the compound `CS(=O)(=O)c1ncc(Cl)c(C(=O)C(C#N)c2nc3ccccc3s2)n1` (stereo not given), the IC90 came to 3.59 µM. The concentration for half-maximal inhibition (IC50) under setting [1] worked out at 3.08 µM.
Consider `COc1ccccc1C(CCNCc1ccc(F)cc1)c1ccco1` (stereo not given), for which the IC90 is 1.66 µM. Under “HEPG2TOX_HILL_SLOPE 6.69, HEPG2TOX_R_SQUARED 0.485, PBLUC_HILL_SLOPE 6.64, PBLUC_R_SQUARED 0.691, read-out: LUCIFERASE INFECTION ASSAY - IC50”, the IC50 stood at 1.19 µM.
Consider `N#CC(C#N)=NNc1ccc(OC(F)(F)F)cc1`, for which the concentration for an effect of 90% (IC90) was above 13 µM. For the same compound, the 50% inhibitory concentration (IC50) (HEPG2TOX_HILL_SLOPE 11.1, HEPG2TOX_R_SQUARED 0.969, PBLUC_HILL_SLOPE 0.201, PBLUC_R_SQUARED 0.0877, read-out: LUCIFERASE INFECTION ASSAY - IC50) worked out at 0.245 µM.
In the case of `Cc1ccccc1OCc1occc1C(=O)Nc1cccc(-n2cnnn2)c1`, the 90% effect concentration (IC90) came out at 6.83 µM. Besides, the concentration for half-maximal inhibition (IC50) (HEPG2TOX_HILL_SLOPE 2.96, HEPG2TOX_R_SQUARED 0.854, PBLUC_HILL_SLOPE 2.81, PBLUC_R_SQUARED 0.577, read-out: LUCIFERASE INFECTION ASSAY - IC50) was 3.12 µM.
On to `COc1cncc(-c2cnc3c(Nc4cc(OC)c(OC)c(OC)c4)nccn23)c1`, for which the IC90 was determined as 0.297 µM. In addition, under “HEPG2TOX_HILL_SLOPE 0.708, HEPG2TOX_R_SQUARED 0.654, PBLUC_HILL_SLOPE 2.45, PBLUC_R_SQUARED 0.956, read-out: LUCIFERASE INFECTION ASSAY - IC50”, the IC50 came out at 0.121 µM.
Consider `C=CCn1c(-c2c(C)oc3ccccc23)cs/c1=N\S(=O)(=O)c1cccs1`, for which the IC90 was above 10 µM. Moreover, the IC50 under setting [1] is above 10 µM.
Turning to `CC1CCC(C(C)C)C(OC(=O)C[n+]2cn(C)c3ccccc32)C1` (stereo not given), the IC90 is 3.79 µM. Moreover, the IC50 (HEPG2TOX_HILL_SLOPE 2.1, HEPG2TOX_R_SQUARED 0.908, PBLUC_HILL_SLOPE 16.2, PBLUC_R_SQUARED 0.404, read-out: LUCIFERASE INFECTION ASSAY - IC50) turned out to be 3.31 µM.
As for `CC(C)c1ccc2cc(C(=O)Nc3ccc4c(c3)NC(=O)CO4)[nH]c2c1`, the IC90 stood at 2.97 µM. For the same compound, the half-maximal inhibitory concentration (IC50) (HEPG2TOX_HILL_SLOPE 0.683, HEPG2TOX_R_SQUARED 0.922, PBLUC_HILL_SLOPE 2.26, PBLUC_R_SQUARED 0.558, read-out: LUCIFERASE INFECTION ASSAY - IC50) turned out to be 1.13 µM.
Consider `O=C(COc1cccc(Br)c1)N/N=C/C1=C(N2CCOCC2)C(=C/c2ccc(Cl)cc2)/CC1`, for which the IC90 is above 10 µM. Moreover, the IC50 under setting [1] is above 10 µM.
On to `CCN(CC)c1ccc(NC(=O)c2c(-c3c(Cl)cccc3Cl)noc2C)c(N(CC)CC)n1`, for which the 90% effect concentration (IC90) was above 6.73 µM. Further, the half-maximal inhibitory concentration (IC50) under setting [1] is above 6.73 µM.
Take `COc1cc2c(cc1NC(=O)c1cnn(C(C)(C)C)c1C)oc1ccccc12`: the 90% effect concentration (IC90) turned out to be 3.66 µM. In addition, the IC50 (PBLUC_HILL_SLOPE 16.6, PBLUC_R_SQUARED 0.596, read-out: LUCIFERASE INFECTION ASSAY - IC50) turned out to be 3.21 µM.
Take `CCCn1c(SCC(=O)NCC23CC4CC(CC(C4)C2)C3)nc2cc(Cl)ccc2c1=O`: the IC90 was above 10 µM. The half-maximal inhibitory concentration (IC50) (FFLUC_HILL_SLOPE 1.09, FFLUC_R_SQUARED 0.071, read-out: LUCIFERASE INFECTION ASSAY - IC50) is above 10 µM.
With `O=C(OCC(=O)N1CCN(c2ccccc2)CC1)c1cccnc1Nc1cccc(C(F)(F)F)c1`, the 90% effect concentration (IC90) was above 10 µM. In addition, the IC50 under setting [1] was above 10 µM.
Consider `Cc1nc2ccccc2n1CCNC(=O)N1CCN(c2ccc(C(F)(F)F)cc2[N+](=O)[O-])CC1`, for which the IC90 is above 10 µM. In addition, the IC50 under setting [1] was above 10 µM.
On to `CNc1ccccc1C(C)(C)c1cc(NC(=O)C2CCCC2)sc1C(=O)c1ccc(Cl)cc1`, for which the IC90 was above 10 µM. For the same compound, the IC50 (HEPG2TOX_HILL_SLOPE 6.51, HEPG2TOX_R_SQUARED 0.0707, read-out: LUCIFERASE INFECTION ASSAY - IC50) is above 10 µM.
For the compound `COc1cc(/C=N/n2cnc3scc(-c4ccc(C)cc4)c3c2=O)ccc1OC(=O)OC(C)(C)C`, the 90% effect concentration (IC90) was above 10 µM. Besides, for the setting “HEPG2TOX_HILL_SLOPE 2.15, HEPG2TOX_R_SQUARED 0.967, PBLUC_HILL_SLOPE 2.51, PBLUC_R_SQUARED 0.415, read-out: LUCIFERASE INFECTION ASSAY - IC50”, the IC50 is 4.26 µM.
As for `c1ccc(-c2cc(NCc3cccs3)nc3ccccc23)cc1`, the 90% effect concentration (IC90) is above 10 µM. Besides, the 50% inhibitory concentration (IC50) under setting [1] is above 10 µM.
Regarding `O=C(OCc1cccc2ccccc12)C1(c2ccccc2)CCN(S(=O)(=O)c2ccccc2)CC1`, the IC90 is above 10 µM. The 50% inhibitory concentration (IC50) under setting [1] came out at 4.79 µM.
With `C=C(C)C1CC=C(C)/C(=N\NC(=O)C(=O)N/N=C2/CC(C(=C)C)CC=C2C)C1` (stereo not given), the IC90 was above 10 µM. The IC50 under setting [1] is above 10 µM.
In the case of `O=C(Cc1cc(Br)sc1Br)Nc1cccc(C(F)(F)F)c1`, the IC90 was above 7.45 µM. Further, the half-inhibitory concentration (IC50) under setting [1] was above 7.45 µM.
Turning to `CO/N=C(/CS(=O)(=O)c1ccc(OC)cc1)c1ccc(Cl)cc1`, the concentration for an effect of 90% (IC90) was above 9.33 µM. Besides, the IC50 (HEPG2TOX_HILL_SLOPE 2.67, HEPG2TOX_R_SQUARED 0.896, PBLUC_HILL_SLOPE 4.33, PBLUC_R_SQUARED 0.342, read-out: LUCIFERASE INFECTION ASSAY - IC50) was 6.46 µM.
For the compound `CCOc1cc(/C=C2\S/C(=N\C3CCCC3)NC2=O)cc(Br)c1OCC`, the IC90 turned out to be 3.94 µM. In addition, under “HEPG2TOX_HILL_SLOPE 17, HEPG2TOX_R_SQUARED 0.811, PBLUC_HILL_SLOPE 15.3, PBLUC_R_SQUARED 0.445, read-out: LUCIFERASE INFECTION ASSAY - IC50”, the 50% inhibitory concentration (IC50) turned out to be 3.41 µM.
Regarding `CS(=O)(=O)Nc1cccc(-c2cn3c(-c4cccc(O)c4)cnc3cn2)c1`, the IC90 stood at 8.16 µM. The IC50 (HEPG2TOX_HILL_SLOPE 7.05, HEPG2TOX_R_SQUARED 0.671, PBLUC_HILL_SLOPE 23.9, PBLUC_R_SQUARED 0.257, read-out: LUCIFERASE INFECTION ASSAY - IC50) worked out at 7.45 µM.
Turning to `COC(=O)c1scc(S(=O)(=O)Cc2ccco2)c1N/N=C(\C#N)S(=O)(=O)C(C)C`, the IC90 is above 7.18 µM. Moreover, under setting [1], the IC50 is above 7.18 µM.
For `CCc1cccc2c(C(=O)CN3CCC(C(=O)Nc4ccc5c(c4)OCO5)CC3)c[nH]c12`, the IC90 was above 10 µM. Moreover, the IC50 under setting [1] was above 10 µM.
In the case of `CCCNC(=O)c1c(NC(=O)c2ccc(OCC)cc2)nc2ccccn12`, the 90% effect concentration (IC90) is 8.98 µM. The IC50 (PBLUC_HILL_SLOPE 45.3, PBLUC_R_SQUARED 0.241, read-out: LUCIFERASE INFECTION ASSAY - IC50) turned out to be 8.55 µM.
For the compound `COCCn1cnc2cnc(Nc3cccc(F)c3)cc21`, the IC90 is above 10 µM. The IC50 under setting [1] is above 10 µM.
As to `COc1ccccc1-c1noc(-c2cc3c(s2)CCCCC3)n1`, the 90% effect concentration (IC90) was 0.846 µM. In addition, the half-inhibitory concentration (IC50) (FFLUC_HILL_SLOPE 2.02, FFLUC_R_SQUARED 0.0931, PBLUC_HILL_SLOPE 0.909, PBLUC_R_SQUARED 0.727, read-out: LUCIFERASE INFECTION ASSAY - IC50) stood at 0.0754 µM.
On to `O=C1C=C(SCC(=O)c2ccc([N+](=O)[O-])cc2)SC(c2ccccc2Cl)C1` (stereo not given), for which the IC90 was above 7.86 µM. For the same compound, the IC50 under setting [1] is above 7.86 µM.
For the compound `CCCN(CCC(=O)Nc1cccc(Cl)c1)CC1CC1`, the IC90 is above 11.2 µM. Besides, the half-inhibitory concentration (IC50) under setting [1] was above 11.2 µM.
With `c1coc(-c2cn3c(-c4ccsc4)cnc3cn2)c1`, the IC90 was above 12.3 µM. For the same compound, for the setting “FFLUC_HILL_SLOPE 11.6, FFLUC_R_SQUARED 0.514, read-out: LUCIFERASE INFECTION ASSAY - IC50”, the 50% inhibitory concentration (IC50) is above 12.3 µM.
